According to US20170014354A1, “ZEAXANTHIN FOR TUMOR TREATMENT” (The New York Eye and Ear Infirmary, priority 2012, published 2017):

What was measured:
Type in all cases: cell-based
A375 = assay: MTT cell viability, A375 cutaneous melanoma; conditions: 48 h, vs control
Protocol: (§1) Each malignant tumor cell line was cultured in Dulbecco's modified Eagle's medium (DMEM, GIBCO, Carlsbad, Calif.) supplemented with 10% fetal bovine serum (FBS, GIBCO). Cells were incubated in a humidified 5% CO2 atmosphere at 37° C. After reaching confluence, cells were detached by trypsin-EDTA solution (GIBCO), diluted 1:4-1:6, plated for subculture and were passaged routinely at a dilution of 1:4-1:6 every 4-6 days.
(§2) All cell lines were tested in triplicates.

HCT-15 = assay: MTT cell viability, HCT-15 colon cancer; conditions: 48 h, vs control
Protocol: as §1, §2

C918 = assay: MTT cell viability, C918 uveal melanoma; conditions: vs control; for Cell viability: 48 h, MTT; for reduction of cell viabilities: FIG. 1C
Protocol: as §1, §2

Hep G2 = assay: MTT cell viability, Hep G2 hepatocellular carcinoma; conditions: 48 h, vs control
Protocol: as §1, §2

PC-3 = assay: MTT cell viability, PC-3 prostate cancer; conditions: 48 h, vs control
Protocol: as §1, §2

NCI-H358 = assay: MTT cell viability, NCI-H358 lung cancer; conditions: 48 h, vs control
Protocol: as §1, §2

A549 = assay: MTT cell viability, A549 lung cancer; conditions: for Cell viability: 48 h, MTT, vs control
Protocol: as §1, §2

MCF-7 = assay: MTT cell viability, MCF-7 breast cancer; conditions: for Cell viability: 48 h, MTT, vs control
Protocol: as §1, §2

BC-1 = assay: MTT cell viability, BC-1 lymphoma; conditions: for Cell viability: 48 h, MTT, vs control
Protocol: as §1, §2

SP6.5 = assay: Phase-contrast microscopy of treated uveal melanoma cells; conditions: SP6.5, 0, 30 and 100 μM zeaxanthin, 48 hr, 24-well plates
Protocol: FIGS. 2A, 2B and 2C illustrate the phase-contrast photomicrographs of uveal melanoma cells which have been treated with three different concentrations of zeaxanthin. Uveal melanoma cells (SP6.5 cell line) were seeded into 24-well plates and treated with zeaxanthin at 0 μM (2A), 30 μM (2B), and 100 μM (2C) levels for 48 hr.
Viability of cells treated with zeaxanthin was also visualized in the following tests. In these tests, the same amount of uveal melanoma cells were cultured and treated with zeaxanthin at different concentrations, and the treated cells were examined under microscope. Specifically, the uveal melanoma cell line SP6.5 was seeded into 24-well plates and treated with zeaxanthin at final concentrations of 0 μM, 30 μM, and 100 μM for 48 hr. […] The number of cells alive in FIG. 2A is more than that in FIG. 2B, which in turn is more than that in FIG. 2C.

Compound: CC1=C(/C=C/C(C)=C/C=C/C(C)=C/C=C/C=C(C)/C=C/C=C(C)/C=C/C2=C(C)C[C@@H](O)CC2(C)C)C(C)(C)C[C@H](O)C1 [zeaxanthin]
- Cell viability (A375; A375, 10 μM zeaxanthin): 62 ± 2.7%
- Cell viability (A375; A375, 30 μM zeaxanthin): 41 ± 2.7%
- Cell viability (A375; A375, 100 μM zeaxanthin): 6%
- Cell viability (HCT-15; HCT-15, 10 μM zeaxanthin): 62 ± 3.4%
- Cell viability (HCT-15; HCT-15, 30 μM zeaxanthin): 46 ± 2.4%
- Cell viability (HCT-15; HCT-15, 100 μM zeaxanthin): 12 ± 1.3%
- Cell viability (C918; C918, 10 μM zeaxanthin): 79 ± 4.1%
- reduction of cell viabilities (C918; C918, 10 μM zeaxanthin): about 21%
- Cell viability (C918; C918, 30 μM zeaxanthin): 48 ± 2.6%
- reduction of cell viabilities (C918; C918, 30 μM zeaxanthin): ~52%
- Cell viability (C918; C918, 100 μM zeaxanthin): 12 ± 1.0%
- reduction of cell viabilities (C918; C918, 100 μM zeaxanthin): ~88%
- Cell viability (Hep G2; Hep G2, 10 μM zeaxanthin): 79 ± 3.7%
- Cell viability (Hep G2; Hep G2, 30 μM zeaxanthin): 58 ± 1.8%
- Cell viability (Hep G2; Hep G2, 100 μM zeaxanthin): 32 ± 1.2%
- Cell viability (PC-3; PC-3, 10 μM zeaxanthin): 74 ± 4.4%
- Cell viability (PC-3; PC-3, 30 μM zeaxanthin): 62 ± 3.2%
- Cell viability (PC-3; PC-3, 100 μM zeaxanthin): 39 ± 2.6%
- Cell viability (NCI-H358; NCI-H358, 10 μM zeaxanthin): 80 ± 3.5%
- Cell viability (NCI-H358; NCI-H358, 30 μM zeaxanthin): 65 ± 3.0%
- Cell viability (NCI-H358; NCI-H358, 100 μM zeaxanthin): 37 ± 1.3%
- Cell viability (A549; A549, 10 μM zeaxanthin): 94 ± 6.6%
- Cell viability (A549; A549, 30 μM zeaxanthin): 86 ± 4.4%
- Cell viability (A549; A549, 100 μM zeaxanthin): 67 ± 6.1%
- final concentration at which cell viability decreased significantly (A549; A549, vs cells without zeaxanthin): ≥ 100 µM
- Cell viability (MCF-7; MCF-7, 10 μM zeaxanthin): 86 ± 4.0%
- Cell viability (MCF-7; MCF-7, 30 μM zeaxanthin): 73 ± 8.3%
- Cell viability (MCF-7; MCF-7, 100 μM zeaxanthin): 52 ± 2.4%
- final concentration at which cell viability decreased significantly (MCF-7; MCF-7, vs cells without zeaxanthin): ≥ 30 µM
- Cell viability (BC-1; BC-1, 10 μM zeaxanthin): 79 ± 8.2%
- Cell viability (BC-1; BC-1, 30 μM zeaxanthin): 67 ± 11%
- Cell viability (BC-1; BC-1, 100 μM zeaxanthin): 69 ± 7.1%
- final concentration at which cell viability decreased significantly (BC-1; BC-1, vs cells without zeaxanthin): ≥ 30 µM
- number of cells seen under microscope (SP6.5): the number of cells in the culture that could be seen under microscope decreased progressively
